IC50 data for 33 compounds are collected here from US12059420B2 (BRISTOL-MYERS SQUIBB COMPANY, priority 2018, dated 2024).

The target in the test is T1, human IDO1 (Homo sapiens, UniProt P14902).
T1 construct: expressed in transfected cells
T1 sequence (P14902 whole entry): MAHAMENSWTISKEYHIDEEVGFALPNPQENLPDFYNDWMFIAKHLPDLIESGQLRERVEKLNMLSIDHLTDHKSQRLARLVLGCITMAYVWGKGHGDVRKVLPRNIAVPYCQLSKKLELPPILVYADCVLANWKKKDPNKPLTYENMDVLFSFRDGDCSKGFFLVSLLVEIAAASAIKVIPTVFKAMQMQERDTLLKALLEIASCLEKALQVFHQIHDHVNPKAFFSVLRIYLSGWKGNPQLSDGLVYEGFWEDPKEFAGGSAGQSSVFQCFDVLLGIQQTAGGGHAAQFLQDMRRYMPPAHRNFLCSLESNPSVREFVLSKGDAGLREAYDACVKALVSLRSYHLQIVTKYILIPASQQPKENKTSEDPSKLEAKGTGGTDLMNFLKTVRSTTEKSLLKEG
In words: IDO inhibition assay in HEK293 cells stably expressing human IDO1 (kynurenine production, Ehrlich reagent, absorbance 490 nm). It counts as cell-based. The note with it: 20 hours incubation with compound, 500 nM reference standard = 100% inhibition, read-out: IDO1 HEK Human IC50. The essentials: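 Kynurenine output of stably IDO1-transfected HEK293 cells was measured by absorbance at 490 nm after mixing supernatant with 0.2% Ehrlich reagent, following TCA stop (0.2% final, 50° C., 30 min). Cells were incubated 20 hours with compound. Inhibition was scaled between DMSO and 500 nM reference standard.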
Consider `CCCN(Cc1ccccc1)c1cc(NC(=O)Cc2csc3ccccc23)cc(-c2ccccc2-c2nn[nH]n2)n1` [Example 216, N-(2-(2-(2H-tetrazol-5-yl)phenyl)-6-(benzyl(propyl)amino)pyridin-4-yl)-2-(benzo[b]thiophen-3-yl)acetamide], for which the IC50 (as a rule, the concentration that inhibits the measured activity by half) was determined as 76.8 nM.

Take `CCCN(Cc1ccccc1)c1cc(NC(=O)Cc2cccc(Br)c2)cc(-c2ccccc2-c2nn[nH]n2)n1` [Example 217, N-(2-(2-(2H-tetrazol-5-yl)phenyl)-6-(benzyl(propyl)amino)pyridin-4-yl)-2-(3-bromophenyl)acetamide]: the IC50 is 239 nM.

For `CCCN(Cc1ccccc1)c1cc(NC(=O)CC2CCCC2)cc(-c2ccccc2-c2nn[nH]n2)n1` [Example 218, N-(2-(2-(2H-tetrazol-5-yl)phenyl)-6-(benzyl(propyl)amino)pyridin-4-yl)-2-cyclopentylacetamide], the IC50 was found to be 1970 nM.

As for `CCCN(Cc1ccccc1)c1cc(NC(=O)Cc2cccc(OC(F)(F)F)c2)cc(-c2ccccc2-c2nn[nH]n2)n1` [Example 219], the IC50 was determined as 59.8 nM.

As to `CCCN(Cc1ccccc1)c1cc(NC(=O)Cc2ccc(C(C)C)cc2)cc(-c2ccccc2-c2nn[nH]n2)n1` [Example 220, N-(2-(2-(2H-tetrazol-5-yl)phenyl)-6-(benzyl(propyl)amino)pyridin-4-yl)-2-(4-isopropylphenyl)acetamide], the IC50 was found to be 52.6 nM.

As to `CCCN(Cc1ccccc1)c1cc(NC(=O)Cc2cn(C)c3ccccc23)cc(-c2ccccc2-c2nn[nH]n2)n1` [Example 221, N-(2-(2-(2H-tetrazol-5-yl)phenyl)-6-(benzyl(propyl)amino)pyridin-4-yl)-2-(1-methyl-1H-indol-3-yl)acetamide], the IC50 is 249 nM.

Regarding `CCCN(Cc1ccccc1)c1cc(NC(=O)Cn2ccnc2)cc(-c2ccccc2-c2nn[nH]n2)n1` [Example 222, N-(2-(2-(2H-tetrazol-5-yl)phenyl)-6-(benzyl(propyl)amino)pyridin-4-yl)-2-(1H-imidazol-1-yl)acetamide], the IC50 was determined as 3430 nM.

Regarding `CCCN(Cc1ccccc1)c1cc(NC(=O)C2(c3ccccc3)CC2)cc(-c2ccccc2-c2nn[nH]n2)n1` [Example 223, N-(2-(2-(2H-tetrazol-5-yl)phenyl)-6-(benzyl(propyl)amino)pyridin-4-yl)-1-phenylcyclopropanecarboxamide], the IC50 worked out at 964 nM.

In the case of `CCCN(Cc1ccccc1)c1cc(NC(=O)C2(c3cccc(F)c3)CC2)cc(-c2ccccc2-c2nn[nH]n2)n1` [Example 224, N-(2-(2-(2H-tetrazol-5-yl)phenyl)-6-(benzyl(propyl)amino)pyridin-4-yl)-1-(3-fluorophenyl)cyclopropanecarboxamide], the IC50 stood at 3000 nM.

For `CCCN(Cc1ccccc1)c1cc(NC(=O)Cc2ccccc2)cc(-c2ccccc2-c2nn[nH]n2)n1` [Example 225, N-(2-(2-(2H-tetrazol-5-yl)phenyl)-6-(benzyl(propyl)amino)pyridin-4-yl)-2-phenylacetamide], the IC50 amounted to 364 nM.

In the case of `CCCN(Cc1ccccc1)c1cc(NC(=O)Cc2cccnc2)cc(-c2ccccc2-c2nn[nH]n2)n1` [Example 226, N-(2-(2-(2H-tetrazol-5-yl)phenyl)-6-(benzyl(propyl)amino)pyridin-4-yl)-2-(pyridin-3-yl)acetamide], the IC50 was 3360 nM.

Regarding `CCCN(Cc1ccccc1)c1cc(NC(=O)Cc2ccc(C#N)cc2)cc(-c2ccccc2-c2nn[nH]n2)n1` [Example 227, N-(2-(2-(2H-tetrazol-5-yl)phenyl)-6-(benzyl(propyl)amino)pyridin-4-yl)-2-(4-cyanophenyl)acetamide], the IC50 was 3350 nM.

Take `CC(C)CN(Cc1ccccc1)c1cc(NC(=O)Cc2ccc(F)c(F)c2)cc(-c2ccccc2-c2nnn[nH]2)n1` [Example 228, N-(2-(2-(1H-tetrazol-5-yl)phenyl)-6-(benzyl(isobutyl)amino)pyridin-4-yl)-2-(3,4-difluorophenyl)acetamide]: the IC50 amounted to 669 nM.

For the compound `CC(C)CN(Cc1ccccc1)c1cc(NC(=O)Cc2ccc(F)cc2F)cc(-c2ccccc2-c2nnn[nH]2)n1` [Example 229, N-(2-(2-(1H-tetrazol-5-yl)phenyl)-6-(benzyl(isobutyl)amino)pyridin-4-yl)-2-(2,4-difluorophenyl)acetamide], the IC50 was determined as 188 nM.

`CC(C)CN(Cc1ccccc1)c1cc(NC(=O)Cc2ccc(C(C)C)cc2)cc(-c2ccccc2-c2nnn[nH]2)n1` [Example 230, N-(2-(2-(1H-tetrazol-5-yl)phenyl)-6-(benzyl(isobutyl)amino)pyridin-4-yl)-2-(4-isopropylphenyl)acetamide]: the IC50 worked out at 139 nM.

On to `Cc1cc(CC(=O)Nc2cc(-c3ccccc3-c3nnn[nH]3)nc(N(Cc3ccccc3)CC(C)C)c2)on1` [Example 231, N-(2-(2-(1H-tetrazol-5-yl)phenyl)-6-(benzyl(isobutyl)amino)pyridin-4-yl)-2-(3-methylisoxazol-5-yl)acetamide], for which the IC50 was found to be 675 nM.

Turning to `CC(C)CN(Cc1ccccc1)c1cc(NC(=O)Cc2ccc(F)c(Cl)c2)cc(-c2ccccc2-c2nnn[nH]2)n1` [Example 233, N-(2-(2-(1H-tetrazol-5-yl)phenyl)-6-(benzyl(isobutyl)amino)pyridin-4-yl)-2-(3-chloro-4-fluorophenyl)acetamide], the IC50 was 961 nM.

For the compound `CC(C)CN(Cc1ccccc1)c1cc(NC(=O)Cc2ccc(OC(F)(F)F)cc2)cc(-c2ccccc2-c2nnn[nH]2)n1` [Example 235, N-(2-(2-(1H-tetrazol-5-yl)phenyl)-6-(benzyl(isobutyl)amino)pyridin-4-yl)-2-(4-(trifluoromethoxy)phenyl)acetamide], the IC50 was determined as 400 nM.

On to `CC(C)CN(Cc1ccccc1)c1cc(NC(=O)c2ccc(F)c(F)c2)cc(-c2ccccc2-c2nnn[nH]2)n1` [Example 236, N-(2-(2-(1H-tetrazol-5-yl)phenyl)-6-difluorobenzamide (benzyl(isobutyl)amino)pyridin-4-yl)-3,4-], for which the IC50 was determined as 687 nM.

On to `CC(C)CN(Cc1ccccc1)c1cc(NC(=O)Nc2ccc(F)cc2F)cc(-c2ccccc2-c2nnn[nH]2)n1` [Example 237, 1-(2-(2-(1H-tetrazol-5-yl)phenyl)-6-(benzyl(isobutyl)amino)pyridin-4-yl)-3-(2,4-difluorophenyl)urea], for which the half-inhibitory concentration (IC50) came to 131 nM.

In the case of `CC(C)CN(Cc1ccccc1)c1cc(NC(=O)Nc2ccc(Cl)cc2Cl)cc(-c2ccccc2-c2nnn[nH]2)n1` [Example 238, 1-(2-(2-(1H-tetrazol-5-yl)phenyl)-6-(benzyl(isobutyl)amino)pyridin-4-yl)-3-(2,4-dichlorophenyl)urea], the IC50 came out at 26.3 nM.

On to `CC(C)CN(Cc1ccccc1)c1cc(NC(=O)Nc2ccc(OC(F)(F)F)cc2)cc(-c2ccccc2-c2nnn[nH]2)n1` [Example 239, 1-(2-(2-(1H-tetrazol-5-yl)phenyl)-6-(benzyl(isobutyl)amino)pyridin-4-yl)-3-(4-(trifluoromethoxy)phenyl)urea], for which the IC50 was determined as 566 nM.

For `Cc1ccc(NC(=O)Nc2cc(-c3ccccc3-c3nnn[nH]3)nc(N(Cc3ccccc3)CC(C)C)c2)cc1` [Example 240, 1-(2-(2-(1H-tetrazol-5-yl)phenyl)-6-(benzyl(isobutyl)amino)pyridin-4-yl)-3-(p-tolyl)urea], the IC50 worked out at 11.9 nM.

Regarding `CCC(CC(=O)O)c1cc(Nc2ccc(Cl)cc2)cc(N(Cc2ccccc2)C(C)C)n1` (stereo not drawn) [Example 241, 3-(6-(benzyl(isopropyl)amino)-4-((4-chlorophenyl)amino)pyridin-2-yl)pentanoic acid], the IC50 stood at 21.3 nM.

For `CCC(CC(=O)O)c1cc(Nc2ccc3nc(C)sc3c2)cc(N(Cc2ccccc2)C(C)C)n1` (stereo not drawn) [Example 242, 3-(6-(benzyl(isopropyl)amino)-4-((2-methylbenzo[d]thiazol-6-yl)amino)pyridin-2-yl)pentanoic acid], the IC50 worked out at 971 nM.

Consider `CC(C)CN(CC(C)C)c1cc(NC(=O)Nc2ccccc2F)cc(-c2cc(F)ccc2C(=O)O)n1` [Example 251, 2-(6-(diisobutylamino)-4-(3-(2-fluorophenyl)ureido)pyridin-2-yl)-4-fluorobenzoic acid], for which the IC50 is 2000 nM.

As to `CC(C)CN(CC(C)C)c1cc(NC(=O)Nc2ccccc2F)cc(-c2ccccc2C(=O)O)n1` [Example 252, 2-(6-(diisobutylamino)-4-(3-(2-fluorophenyl)ureido)pyridin-2-yl)benzoic acid], the IC50 is 972 nM.

Turning to `CC(C)CN(CC(C)C)c1cc(NC(=O)Nc2ccccc2F)cc(-c2ccccc2-c2nnn[nH]2)n1` [Example 253, 1-(2-(2-(1H-tetrazol-5-yl)phenyl)-6-(diisobutylamino)pyridin-4-yl)-3-(2-fluorophenyl)urea], the IC50 was 972 nM.

As for `Cc1ccc(NC(=O)Nc2cc(-c3ccccc3C(=O)O)nc(N(CC(C)C)CC(C)C)c2)cc1` [Example 254, 2-(6-(diisobutylamino)-4-(3-(p-tolyl)ureido)pyridin-2-yl)benzoic acid], the IC50 came to 1080 nM.

On to `CCCN(c1cc(NC(=O)Nc2ccc(C)cc2)cc(-c2cc(F)ccc2C(=O)O)n1)C1CCCCC1` [Example 256], for which the IC50 came to 980 nM.

`CCCN(c1cc(NC(=O)Nc2ccc(C)cc2)cc(-c2ccccc2C(=O)O)n1)C1CCCCC1` [Example 257, 2-(6-(cyclohexyl(propyl)amino)-4-(3-(p-tolyl)ureido)pyridin-2-yl)benzoic acid]: the IC50 was found to be 1890 nM.

For the compound `CCCN(c1cc(NC(=O)Nc2ccc(C)cc2)cc(-c2ccccc2-c2nnn[nH]2)n1)C1CCCCC1` [Example 258, 1-(2-(2-(1H-tetrazol-5-yl)phenyl)-6-(cyclohexyl(propyl)amino)pyridin-4-yl)-3-(p-tolyl)urea], the IC50 stood at 411 nM.

As to `CCCN(Cc1ccccc1)c1cc(NC(=O)Nc2ccc(C)cc2)cc(-c2ccccc2-c2nnn[nH]2)n1` [Example 260, 1-(2-(2-(1H-tetrazol-5-yl)phenyl)-6-(benzyl(propyl)amino)pyridin-4-yl)-3-(p-tolyl)urea], the IC50 was determined as 9.9 nM.
